Data as given in patent US8604021B2, “Substituted arylamine compounds and methods of treatment” (priority 2005, dated 2013).
pIC50, pKi: −log10 of the molar value. “Also recorded” adds a separate entry of the source.

What was measured:
5HT2A = 5HT2A (Homo sapiens, UniProt P28223); test: Compound Binding Profiles: 5HT2A; conditions: * = Estimated IC50
[1] = Novel object recognition test; format: in vivo, C57Bl/6J mice; conditions: for Memory index, Mean: 10 min test; for Exploration time, Diff of Means 10% DMSO vs. treatment: within Familiar; for Exploration time, Diff of Means treatment vs. 10% DMSO: within Novel
Excerpt: Male C57Bl/6J mice from Jackson Laboratories (Bar Harbor, Me.) were used. Mice were received at 6-weeks of age. Upon receipt, mice were assigned unique identification numbers (tail marked) and were group housed in polycarbonate cages with filter tops. All animals remained housed in groups of four during the remainder of the study. All mice were acclimated to the colony room for at least two weeks prior to testing and were subsequently tested at an average age of 8 weeks of age. During the period of acclimation, mice were examined on a regular basis, handled, and weighed to assure adequate health and suitability. Mice were maintained on a 12/12 light/dark cycle with the light on at 6:00 a.m. The room temperature was maintained between 20 and 23° C. with a relative humidity maintained between 30% and 70%. Chow and water were provided ad libitum for the duration of the study. In each test, animals were randomly assigned across treatment groups.
The pH at the 10 mg/kg was around 5.5.
Rolipram, also dissolved in 10% DMSO was only administered 20 min prior to training on Day 2.
On Day 1, mice were habituated to a circular open field environment (d=18 in, h=15 cm) for one hour in cage groups of four. Each Arena was constructed out of acrylic that was painted black to block reflection. On day 2, mice were placed back into the same arena for a training trial and allowed to explore a set of two identical objects placed equidistance apart from both each other and the arena walls. Individual mice were trained for a total of 15 minutes and then placed back into their home cages. On Day 3, mice were placed back into the same arena in the presence of both the familiar (previously explored) and a novel object. The spatial positions of the familiar and novel object (i.e. left-right sides) were counterbalanced between subjects. The difference in time spent exploring each object during the test trial was used as an index of object recognition and memory retention. Each animals test trial was recorded and these tapes were observed and scored after test completion. The first 10 min of each session was scored and object recognition was computed using the formula: (Time spent with novel object*100)/(Total Time exploring both objects). Tissue Harvest
Data were analyzed by analysis of variance (ANOVA) followed by post-hoc comparisons with Fisher Tests when appropriate. An effect was considered significant if p<0.05. Data are represented as the mean and standard error to the mean.

H1 = H1 (Homo sapiens, UniProt P35367); test: Compound Binding Profiles: H1; conditions: * = Estimated IC50
[2] = Food intake and body weight in rats, sub-chronic dosing; format: in vivo; conditions: sub-chronic dosing 10 and 30 mg/kg qd, i.p.
D4 = molecular target: T1, D4 (Homo sapiens, UniProt P21917); test: Compound Binding Profiles: D4; conditions: read-out: D4 binding class
T1 sequence (P21917 1-419): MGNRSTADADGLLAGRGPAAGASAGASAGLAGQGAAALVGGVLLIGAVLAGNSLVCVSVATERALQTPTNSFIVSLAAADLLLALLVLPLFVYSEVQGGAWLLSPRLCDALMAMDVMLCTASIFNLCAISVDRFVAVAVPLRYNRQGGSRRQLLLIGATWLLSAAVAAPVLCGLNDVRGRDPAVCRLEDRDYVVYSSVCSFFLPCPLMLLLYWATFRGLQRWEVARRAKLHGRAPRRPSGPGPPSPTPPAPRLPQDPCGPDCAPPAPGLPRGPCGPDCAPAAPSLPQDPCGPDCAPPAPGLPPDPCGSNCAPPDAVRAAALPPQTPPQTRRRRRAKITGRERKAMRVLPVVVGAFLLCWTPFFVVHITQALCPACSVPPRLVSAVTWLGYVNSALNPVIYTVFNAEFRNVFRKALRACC

Chain of 5HT2A (P28223 whole entry, species assumed): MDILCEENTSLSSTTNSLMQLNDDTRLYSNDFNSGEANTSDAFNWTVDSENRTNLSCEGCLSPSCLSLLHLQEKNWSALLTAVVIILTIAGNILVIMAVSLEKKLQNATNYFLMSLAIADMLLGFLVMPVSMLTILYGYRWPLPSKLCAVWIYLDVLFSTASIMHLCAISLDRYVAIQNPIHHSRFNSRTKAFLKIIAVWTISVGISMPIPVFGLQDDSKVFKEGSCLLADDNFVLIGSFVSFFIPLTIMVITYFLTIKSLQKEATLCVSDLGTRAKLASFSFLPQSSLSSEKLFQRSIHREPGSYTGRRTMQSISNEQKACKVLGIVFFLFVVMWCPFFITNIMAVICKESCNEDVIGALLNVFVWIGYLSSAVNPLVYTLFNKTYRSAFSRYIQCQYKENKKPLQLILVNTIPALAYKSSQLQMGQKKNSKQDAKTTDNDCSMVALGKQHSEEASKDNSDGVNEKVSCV
Chain of H1 (P35367 whole entry): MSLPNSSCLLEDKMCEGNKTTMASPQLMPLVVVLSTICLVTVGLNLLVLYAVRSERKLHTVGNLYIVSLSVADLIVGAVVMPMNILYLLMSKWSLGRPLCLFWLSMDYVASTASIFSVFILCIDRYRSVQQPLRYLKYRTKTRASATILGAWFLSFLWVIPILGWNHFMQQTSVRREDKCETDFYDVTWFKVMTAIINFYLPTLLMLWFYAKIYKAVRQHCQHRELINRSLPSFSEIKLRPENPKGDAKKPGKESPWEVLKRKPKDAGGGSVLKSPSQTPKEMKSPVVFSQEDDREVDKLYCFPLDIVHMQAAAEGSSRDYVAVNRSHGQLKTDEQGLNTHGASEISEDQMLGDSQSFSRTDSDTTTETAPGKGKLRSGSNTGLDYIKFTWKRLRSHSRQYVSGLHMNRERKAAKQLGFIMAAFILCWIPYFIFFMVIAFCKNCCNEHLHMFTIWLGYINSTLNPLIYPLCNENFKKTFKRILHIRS

Q: For `COc1cc(Cl)cc(C(C)Nc2cc(N3CCNCC3)ccc2S(C)(=O)=O)c1OC.Cl` (stereo not shown) [Compound A, [1-(5-Chloro-2,3-dimethoxy-phenyl)-ethyl]-(2-methanesulfonyl-5-piperazin-1-yl-phenyl)-amine hydrochloride], which “stability (HLM)” value (Stability in HLM) is on record?
A: > 90 min

Q: And the pIC50 (5HT2A)?
A: 5.60

Q: And the “Exploration time, Diff of Means Novel vs. Familiar” value ([1]; 1 mg/kg)?
A: 14.456

Q: And the “Memory index, Mean Diff. Vehicle versus treatment (Fisher's PLSD)” value ([1]; 1 mg/kg)?
A: −4.573

Q: What about the “Memory index, Mean” value ([1]; 1 mg/kg i.p.) of the same compound?
A: 61.179

Q: What about the “Exploration time, Mean” value ([1]; 1 mg/kg, Familiar Object) of the same compound?
A: 24.810

Q: What about the “Exploration time, Mean” value ([1]; 1 mg/kg, Novel Object) of the same compound?
A: 39.266

Q: What about the “Exploration time, Diff of Means Novel vs. Familiar” value ([1]; 3 mg/kg) of the same compound?
A: 23.871

Q: And the “effect on recognition index / object recognition compared to vehicle” value ([1]; 3 mg/kg and 10 mg/kg, hydrochloride)?
A: significantly increased the recognition index; also recorded: significant, positive effect on object recognition

Q: What about the “Memory index, Mean” value ([1]; 3 mg/kg i.p.) of the same compound?
A: 68.946

Q: What about the “Exploration time, Mean” value ([1]; 3 mg/kg, Familiar Object) of the same compound?
A: 17.506

Q: What about the “Exploration time, Mean” value ([1]; 3 mg/kg, Novel Object) of the same compound?
A: 41.377

Q: And the “Exploration time, Diff of Means Novel vs. Familiar” value ([1]; 10 mg/kg)?
A: 18.878

Q: And the “Memory index, Mean Diff. Vehicle versus treatment (Fisher's PLSD)” value ([1]; 10 mg/kg)?
A: −9.784

Q: And the “Memory index, Mean” value ([1]; 10 mg/kg i.p.)?
A: 66.391

Q: And the “Exploration time, Mean” value ([1]; 10 mg/kg, Familiar Object)?
A: 16.153

Q: And the “Exploration time, Mean” value ([1]; 10 mg/kg, Novel Object)?
A: 35.031

Q: And the “time exploring novel object versus familiar object” value ([1]; 1, 3, and 10 mg/kg)?
A: spent more time exploring novel object than the familiar object

Q: What about the “Exploration time, Diff of Means 10% DMSO vs. treatment” value ([1]; 1 mg/kg) of the same compound?
A: 0.831

Q: And the “Exploration time, Diff of Means 10% DMSO vs. treatment” value ([1]; 3 mg/kg)?
A: 6.473

Q: What about the “Exploration time, Diff of Means 10% DMSO vs. treatment” value ([1]; 10 mg/kg) of the same compound?
A: 7.826

Q: And the “Exploration time, Diff of Means treatment vs. 10% DMSO” value ([1]; 1 mg/kg)?
A: 8.282

Q: What about the “Exploration time, Diff of Means treatment vs. 10% DMSO” value ([1]; 3 mg/kg) of the same compound?
A: 10.393

Q: And the “Exploration time, Diff of Means treatment vs. 10% DMSO” value ([1]; 10 mg/kg)?
A: 4.047

Q: What about the pIC50 (H1) of the same compound?
A: 4.66

Q: And the body weight [2]?
A: significant reduction

Q: And the food intake [2]?
A: significant reduction

Q: And the pKi (D4)?
A: 6.00 to 7.00
